# Test results as given in patent US20210172961A1, “METHODS FOR IDENTIFYING RNA EDITING-DERIVED EPITOPES THAT ELICIT IMMUNE RESPONSES IN CANCER” (Board of Regents, The University of Texas System, priority 2018, published 2021).
# Experiments:
# Format in all cases: cell-based, human
# [1] = test system: melanoma TILs; assay: IFNγ ELISPOT of melanoma TILs incubated with synthetic peptide; details: for IFNγ production by TILs (ELISPOT response to peptide): 15 HLA-A*02:01-expressing melanoma TILs, peptide 10 μM
# Source text: To examine whether the detected HLA ligands are recognized by tumor-infiltrating lymphocytes (TILs) and if these TILs can kill cells presenting ED. For this analysis, matched autologous pairs of melanoma TILs and tumor cell lines were used. CCNI-ED peptide and its WT counterpart were synthesized and evaluated for their ability to activate TILs generated from human melanoma tumours.
# Melanoma TILs were generated as described before. Briefly, melanoma tumor samples were either cut into 1-3 mm^2 fragments and put in culture in a tissue-treated 24-well plate, in complete TIL media (TIL-CM) consisting of RPMI 1640 (Gibco, 61871), 10% of human AB serum (GEMINI, 100-512), 0.1% of 2-mercaptoethanol (Gibco, 21985023), 1% of HEPES (Corning, 25-060), 1% sodium pyruvate (Invitrogen/Life Technologies, 11360-070), 1% of Glutomax (Gibco, 35050061), 1% PenStrep (ThermoFisher, 15070063) plus 6000 U/mL of human IL-2 or put in culture after the tumor samples were enzymatically digested by collagenase for 1 h at 37° C. followed by centrifugation using a multi-layer Ficoll gradient (100% and 75%, Ficoll-Paque PLUS, GE, 17-1440-02) where the 100% layer was collected for TILs. Every 3 days, half of the medium was replaced with fresh medium and the TIL culture was split to keep the cells at a density of 1×10^6/mL. TILs were expanded between 2 to 5 weeks, depending on the TIL lines. To increase the number of TILs available for experiments, the lines were further expanded using the rapid expansion protocol (REP). In brief, 1.5×10^5 primary TILs generated above were cultured with 27×10^6 feeder cells together with 0.6 mg soluble anti-CD3 monoclonal antibody (OKT3 clone, Muronomab—Abbott Labs). The feeder cells are peripheral blood mononuclear (PBMC) cells mixed from at least 5 healthy donors and irradiated at 5,000 cGy for 20 minutes prior to culture in order to prevent their proliferation during the REP. 6,000 U/mL IL-2 was added at the second day and half of the medium was recovered and replaced with fresh medium containing 50% of TIL-CM and 50% of AIM-V medium (Invitrogen, 12055-083) every 3 days to keep TIL density between 0.5-2×10^6/mL. The cultured TILs were harvested at day 14 for functional analysis or frozen in human serum with 10% DMSO (Thermo Fisher, 67-68-5). Autologous tumor cell lines were also established from the enzymatically digested tumours followed by the multi-layer Ficoll gradient where the 75% layer was collected and put in culture in complete tumor media (RPMI 1640, Gibco, 61871) containing 10% FBS, 1% HEPES (Corning, 25-060), 1% sodium pyruvate (Invitrogen/Life Technologies, 11360-070), 1% insulin/selenium/transferrin (Gibco, 51300), 0.2% MycoZap-PR (Lonza, VZA-2011). All tumor samples were HLA typed at the HLA-A locus in the MD Anderson HLA Typing Laboratory. […]
# [2] = test system: T2 cells; assay: Caspase3 based CTL killing assay, TIL2661 against peptide-pulsed T2 cells; details: T2 pulsed with 10 μM peptide, anti-caspase3 staining, flow cytometry
# Source text: T cells play a primary role in adaptive immunity against infections and tumorigenesis, and therapies based on manipulating T-cell activation have shown promise in cancer treatment. To determine the function of CCNI-ED specific T cells in mediating tumor cell killing, the HLA-A*02:01 expressing lymphoblast cell line T2, which is lacking expression of the transporter associated with antigen processing (TAP) and thus incapable of presenting endogenous peptides, were employed. The CCNI-WT or CCNI-ED peptide were pulsed onto T2 cells, co-cultured with TIL2661 in different ratios, and then measured T-cell mediated target cell death based on anti-caspase3 staining and subsequent flow cytometric quantification. […]
# T cell-mediated cell killing was analyzed using a flow cytometry-based method by detecting T cell-induced caspase-3 cleavage in target cells. […] T cell-mediated caspase-3 cleavage was measured by intracellular staining with Cytofix/Cytoperm reagent (BD Biosciences, 554772) and PE conjugated anti-cleaved caspase-3 antibody (BD Bioscience, 550821) and the number of pre-apoptotic cells were determined by flow cytometry.
# [3] = test system: 293-A2 cells; assay: IFNγ ELISPOT of Ted10 with peptide-pulsed or CCNI-transfected 293-A2 cells; details: 293-A2 cells pulsed with peptide
# Method: To investigate this relationship on cellular level, CCNI-ED10-specific effector T cells (Ted10) were generated from HLA-A*02:01-expressing normal peripheral blood mononuclear cells (PBMCs) using an established method.
# IFNγ Enzyme-linked immunospot (ELISPOT) assay was performed to detect T-cell responses. MultiScreen 96 well filter plates (Millipore, MAHAS4510) were coated over night at 4° C. with 75 μL/well of […] anti-human IFNγ capture antibody (Mabtech AB, 3420-3-1000). TILs or CCNI-ED specific T cells (Ted10) were thawed and cultured with 1000U of human IL-2/mL overnight. On the next day, before performing ELISPOT assay, T cells were starved with IL-2 free medium for 6 hours. […] After 18 hours of cultivation at 37° C. and 5% CO2, the plates were incubated with 1 ng/mL of Biotinylated anti-human IFNγ monoclonal antibody (Mabtech, 3420-6-1000) for one hour, stained with ExtrAvidine®-Alkaline phosphatase (Sigma-Aldrich, E2636) and IFNγ positive spots were detected with BCIP/NBT Membrane Alkaline Phosphatase Substrate (Sigma, 11697471001). Plates were scanned and counted using the ImmunoSpot® ELISPOT analyzer (Shaker Heights, Ohio) to determine the number of spots/well. […]
sequence,measurement,setting,value
"LLDGFLATV (listed as Homo sapiens) [CCNI-ED9, RNA editing-derived HLA peptide, editing site CCNI R75G]",IFNγ ELISPOT response of TIL to peptide,"[1]; TIL2576, parallel assay with the same TILs",weakly reacted
"SLLDGFLATV (listed as Homo sapiens) [CCNI-ED10, RNA editing-derived HLA peptide, editing site CCNI R75G]",IFNγ production by TILs (ELISPOT response to peptide),[1]; triplicates,strongly responded
same,"number of HLA-A*02:01-expressing TILs that responded (TIL2678, TIL2661, TIL2559)","[1]; IFNγ ELISPOT, triplicates",3 out of 15
same,TIL2661 mediated killing of peptide-pulsed T2 cells,[2],facilitated target killing
same,IFNγ production by Ted10 (ELISPOT),[3],potently activated
"SLLDRFLATV (listed as Homo sapiens) [CCNI-WT10, non-edited wildtype counterpart of CCNI-ED10, reference compound]",IFNγ production by TILs (ELISPOT response to peptide),[1]; triplicates,none of the TILs responded
same,TIL2661 mediated killing of peptide-pulsed T2 cells,[2],"CCNI-ED10, rather than CCNI-WT10, to T2 cells facilitated target killing"
